According to PMC9848300, “Discovery of novel enasidenib analogues targeting inhibition of mutant isocitrate dehydrogenase 2 as antileukaemic agents” (Journal of Enzyme Inhibition and Medicinal Chemistry, 2023):
Read-outs that look alike come from different tables or passages of the source.

Key:
UACC-62 = assay: NCI 60 antitumor screening (single dose / five doses); type: cell-based; conditions: Homo sapiens
MDA-MB-231/ATCC = assay: as above; type: cell-based; conditions: Homo sapiens
[1] = tested on: 60 human subpanel cancer cell lines; assay: NCI 60 antitumor screening, mean over the panel (single dose); type: cell-based; conditions: mean over 60 cancer cell lines, single dose 10 μM
Procedure, shortened: (§1)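 Under the NCI Drug Evaluation Branch protocol, each compound is screened at one 10 μM concentration on the 60-line human tumour panel. Growth of treated cells is expressed as G%, and inhibition is reported as 100 − G%.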

HCT-116 = assay: NCI 60 antitumor screening (single dose / five doses); type: cell-based; conditions: Homo sapiens
BT-549 = assay: as above; type: cell-based; conditions: Homo sapiens
SK-MEL-2 = assay: as above; type: cell-based; conditions: Homo sapiens
HL-60(TB) = assay: as above; type: cell-based; conditions: Homo sapiens
ACHN = assay: as above; type: cell-based; conditions: Homo sapiens, read-out: Growth inhibition percentage (GI %)
SN 12C = assay: as above; type: cell-based; conditions: Homo sapiens, SN12C, read-out: Growth inhibition percentage (GI %)
786-0 = assay: as above; type: cell-based; conditions: Homo sapiens
UACC-257 = assay: as above; type: cell-based; conditions: Homo sapiens
SF-539 = assay: as above; type: cell-based; conditions: Homo sapiens
DU-145 = assay: as above; type: cell-based; conditions: Homo sapiens
LOX IMVI = assay: as above; type: cell-based; conditions: Homo sapiens, read-out: Growth inhibition percentage (GI %)
HOP-92 = assay: as above; type: cell-based; conditions: Homo sapiens
SK-MEL-28 = assay: as above; type: cell-based; conditions: Homo sapiens
HCT-15 = assay: as above; type: cell-based; conditions: Homo sapiens
MDA-MB-435 = assay: as above; type: cell-based; conditions: Homo sapiens
IGROV1 = assay: as above; type: cell-based; conditions: Homo sapiens
HT29 = assay: as above; type: cell-based, human; conditions: Homo sapiens
COLO 205 = assay: as above; type: cell-based; conditions: Homo sapiens
SF-268 = assay: NCI 60 antitumor screening (single dose); type: cell-based; conditions: Homo sapiens; SF-268 (CNS cancer), single dose 10 μM; read-out: Growth inhibition percentage (GI %)
Procedure, shortened: as §1

MCF7 = assay: NCI 60 antitumor screening (single dose); type: cell-based; conditions: Homo sapiens
Procedure, shortened: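 Single-dose NCI protocol, 10 μM, triplicate. Readout G%; GI% = 100 − G%.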

RXF 393 = assay: NCI 60 antitumor screening (single dose / five doses); type: cell-based; conditions: Homo sapiens
UO-31 = assay: as above; type: cell-based; conditions: Homo sapiens
A498 = assay: as above; type: cell-based; conditions: Homo sapiens
T-47D = assay: as above; type: cell-based; conditions: Homo sapiens, T47D, read-out: Growth inhibition percentage (GI %)
K-562 = assay: as above; type: cell-based; conditions: Homo sapiens
SNB-75 = assay: as above; type: cell-based; conditions: Homo sapiens
[2] = UACC-62, read-out: Growth inhibition percentage (GI %)
[3] = MDA-MB-231, read-out: Growth inhibition percentage (GI %)
[4] = HCT-116, read-out: Growth inhibition percentage (GI %)
[5] = BT-549, read-out: Growth inhibition percentage (GI %)
[6] = SK-MEL-2, read-out: Growth inhibition percentage (GI %)
[7] = HL-60, read-out: Growth inhibition percentage (GI %)
[8] = 786-0, read-out: Growth inhibition percentage (GI %)
[9] = UACC-257, read-out: Growth inhibition percentage (GI %)
[10] = SF-539, read-out: Growth inhibition percentage (GI %)
[11] = DU-145, read-out: Growth inhibition percentage (GI %)
[12] = HOP-92, read-out: Growth inhibition percentage (GI %)
[13] = SK-MEL-28, read-out: Growth inhibition percentage (GI %)
[14] = HCT-15, read-out: Growth inhibition percentage (GI %)
[15] = MDA-MB-435, read-out: Growth inhibition percentage (GI %)
[16] = IGROV-1, read-out: Growth inhibition percentage (GI %)
[17] = HT-29, read-out: Growth inhibition percentage (GI %)
[18] = COLO 205, read-out: Growth inhibition percentage (GI %)
[19] = MCF7, read-out: Growth inhibition percentage (GI %)
[20] = RXF 393, read-out: Growth inhibition percentage (GI %)
[21] = UO-31, read-out: Growth inhibition percentage (GI %)
[22] = A498, read-out: Growth inhibition percentage (GI %)
[23] = K562, read-out: Growth inhibition percentage (GI %)
[24] = SNB-75, read-out: Growth inhibition percentage (GI %)

## O=[N+]([O-])c1cccc(/C=N/Nc2nc(N/N=C/c3cccc([N+](=O)[O-])c3)nc(N3CCOCC3)n2)c1 [compound 6f, 2-(Morpholin-4-yl)-4,6-bis[(E)-2-[(3-nitrophenyl)methylidene]hydrazin-1-yl]-1,3,5-triazine]
UACC-62; [2]
  inhibition at 10 µM: 21.1%
MDA-MB-231/ATCC; [3]
  inhibition at 10 µM: 2.27%
[1]
  Mean GI %: 23.39%
HCT-116; [4]
  inhibition at 10 µM: 35.6%
BT-549; [5]
  inhibition at 10 µM: 11.7%
SK-MEL-2; [6]
  inhibition at 10 µM: 4.93%
HL-60(TB); [7]
  inhibition at 10 µM: 47.8%
ACHN; ACHN
  inhibition at 10 µM: 30.2%
SN 12C
  inhibition at 10 µM: 24.4%
786-0; [8]
  inhibition at 10 µM: 30.4%
UACC-257; [9]
  inhibition at 10 µM: 9.17%
SF-539; [10]
  inhibition at 10 µM: 6.2%
DU-145; [11]
  inhibition at 10 µM: 31.1%
LOX IMVI; LOX IMVI
  inhibition at 10 µM: 39.5%
HOP-92; [12]
  inhibition at 10 µM: 14.2%
SK-MEL-28; [13]
  inhibition at 10 µM: 17.9%
HCT-15; [14]
  inhibition at 10 µM: 53.2%
MDA-MB-435; [15]
  inhibition at 10 µM: 9.84%
IGROV1; [16]
  inhibition at 10 µM: 42.6%
HT29; [17]
  inhibition at 10 µM: 42.2%
COLO 205; [18]
  inhibition at 10 µM: 44.2%
SF-268
  inhibition at 10 µM: 6.36%
MCF7; [19]
  inhibition at 10 µM: 34.7%
RXF 393; [20]
  inhibition at 10 µM: 28.1%
UO-31; [21]
  inhibition at 10 µM: 50.7%
A498; [22]
  inhibition at 10 µM: 13.1%
T-47D
  inhibition at 10 µM: 30.9%
K-562; [23]
  inhibition at 10 µM: 63.3%
SNB-75; [24]
  inhibition at 10 µM: 11.2%

## Clc1cccc(/C=N/Nc2nc(N/N=C/c3cccc(Cl)c3Cl)nc(N3CCOCC3)n2)c1Cl [compound 6h, 2,4-Bis[(E)-2-[(2,3-Dichlorophenyl)methylidene]hydrazin-1-yl]-6-(morpholin-4-yl)-1,3,5-triazine]
UACC-62; UACC-62 (melanoma), single dose 10 μM, read-out: Growth inhibition percentage (GI %)
  inhibition at 10 µM: 11.3%
MDA-MB-231/ATCC; MDA-MB-231/ATCC (breast cancer), single dose 10 μM, read-out: Growth inhibition percentage (GI %)
  inhibition at 10 µM: 13.8%
[1]
  Mean GI %: 9.97%
HCT-116; HCT-116 (colon cancer), single dose 10 μM, read-out: Growth inhibition percentage (GI %)
  inhibition at 10 µM: 19.3%
BT-549; BT-549 (breast cancer), single dose 10 μM, read-out: Growth inhibition percentage (GI %)
  inhibition at 10 µM: 0.16%
SK-MEL-2; SK-MEL-2 (melanoma), single dose 10 μM, read-out: Growth inhibition percentage (GI %)
  inhibition at 10 µM: 13.8%
HL-60(TB); HL-60(TB) (leukaemia), single dose 10 μM, read-out: Growth inhibition percentage (GI %)
  inhibition at 10 µM: -3.95%
ACHN; ACHN (renal cancer), single dose 10 μM
  inhibition at 10 µM: -7.98%
SN 12C; SN 12C (renal cancer), single dose 10 μM
  inhibition at 10 µM: 20.2%
786-0; 786-0, 786-0 (renal cancer), single dose 10 μM, read-out: Growth inhibition percentage (GI %)
  inhibition at 10 µM: 1.86%
UACC-257; UACC-257 (melanoma), single dose 10 μM, read-out: Growth inhibition percentage (GI %)
  inhibition at 10 µM: -9.57%
SF-539; SF-539 (CNS cancer), single dose 10 μM, read-out: Growth inhibition percentage (GI %)
  inhibition at 10 µM: 44.2%
DU-145; DU-145 (prostate cancer), single dose 10 μM, read-out: Growth inhibition percentage (GI %)
  inhibition at 10 µM: -2.63%
LOX IMVI; LOX IMVI (melanoma), single dose 10 μM
  inhibition at 10 µM: 31.6%
HOP-92; HOP-92 (non-small cell lung cancer), single dose 10 μM, read-out: Growth inhibition percentage (GI %)
  inhibition at 10 µM: -5.67%
SK-MEL-28; SK-MEL-28 (melanoma), single dose 10 μM, read-out: Growth inhibition percentage (GI %)
  inhibition at 10 µM: 2.23%
HCT-15; HCT-15 (colon cancer), single dose 10 μM, read-out: Growth inhibition percentage (GI %)
  inhibition at 10 µM: 15.2%
MDA-MB-435; MDA-MB-435 (melanoma), single dose 10 μM, read-out: Growth inhibition percentage (GI %)
  inhibition at 10 µM: -6.86%
IGROV1; IGROV-1, IGROV1 (ovarian cancer), single dose 10 μM, read-out: Growth inhibition percentage (GI %)
  inhibition at 10 µM: 11.2%
HT29; HT-29, HT29 (colon cancer), single dose 10 μM, read-out: Growth inhibition percentage (GI %)
  inhibition at 10 µM: 12.9%
COLO 205; COLO 205 (colon cancer), single dose 10 μM, read-out: Growth inhibition percentage (GI %)
  inhibition at 10 µM: 7.98%
SF-268
  inhibition at 10 µM: 13%
MCF7; MCF7 (breast cancer), single dose 10 μM, read-out: Growth inhibition percentage (GI %)
  inhibition at 10 µM: 25.1%
RXF 393; RXF 393 (renal cancer), single dose 10 μM, read-out: Growth inhibition percentage (GI %)
  inhibition at 10 µM: 5.06%
UO-31; UO-31 (renal cancer), single dose 10 μM, read-out: Growth inhibition percentage (GI %)
  inhibition at 10 µM: 16.1%
A498; A498 (renal cancer), single dose 10 μM, read-out: Growth inhibition percentage (GI %)
  inhibition at 10 µM: -10.5%
T-47D; T-47D (breast cancer), single dose 10 μM
  inhibition at 10 µM: 44.7%
K-562; K562, K-562 (leukaemia), single dose 10 μM, read-out: Growth inhibition percentage (GI %)
  inhibition at 10 µM: 38.6%
SNB-75; SNB-75 (CNS cancer), single dose 10 μM, read-out: Growth inhibition percentage (GI %)
  inhibition at 10 µM: -19.6%

## O=[N+]([O-])c1cc(/C=N/Nc2nc(N/N=C/c3ccc(Cl)c([N+](=O)[O-])c3)nc(N3CCOCC3)n2)ccc1Cl [compound 6i, 2,4-Bis[(E)-2-[(4-Chloro-3-nitrophenyl)methylidene]hydrazin-1-yl]-6-(morpholin-4-yl)-1,3,5-triazine]
UACC-62; [2]
  inhibition at 10 µM: 9.59%
MDA-MB-231/ATCC; [3]
  inhibition at 10 µM: 3.16%
[1]
  Mean GI %: 0.67%
HCT-116; [4]
  inhibition at 10 µM: 7.64%
BT-549; [5]
  inhibition at 10 µM: -0.85%
SK-MEL-2; [6]
  inhibition at 10 µM: -2.6%
HL-60(TB); [7]
  inhibition at 10 µM: 13.7%
ACHN; ACHN
  inhibition at 10 µM: -2.76%
SN 12C
  inhibition at 10 µM: 9.02%
786-0; [8]
  inhibition at 10 µM: -8.76%
UACC-257; [9]
  inhibition at 10 µM: -2.78%
SF-539; [10]
  inhibition at 10 µM: 6.38%
DU-145; [11]
  inhibition at 10 µM: -11.3%
LOX IMVI; LOX IMVI
  inhibition at 10 µM: 9.76%
HOP-92; [12]
  inhibition at 10 µM: -20.3%
SK-MEL-28; [13]
  inhibition at 10 µM: -4.35%
HCT-15; [14]
  inhibition at 10 µM: 8.38%
MDA-MB-435; [15]
  inhibition at 10 µM: -7.52%
IGROV1; [16]
  inhibition at 10 µM: 7.34%
HT29; [17]
  inhibition at 10 µM: -2.29%
COLO 205; [18]
  inhibition at 10 µM: -4.66%
SF-268
  inhibition at 10 µM: 0.39%
MCF7; [19]
  inhibition at 10 µM: 56.7%
RXF 393; [20]
  inhibition at 10 µM: -20.7%
UO-31; [21]
  inhibition at 10 µM: 22.3%
A498; [22]
  inhibition at 10 µM: -10.3%
T-47D
  inhibition at 10 µM: 0.85%
K-562; [23]
  inhibition at 10 µM: 31.4%
SNB-75; [24]
  inhibition at 10 µM: -7.64%
